This experiment has as its target Chymotrypsinogen A (Bos taurus) (UniProt P00766). Briefly: Inhibition of chymotrypsin-catalyzed hydrolysis of BzTyr p-nitroanilide by compound at pH 5.

In turn, `CC(=O)N[C@@H](C)C(=O)NN=CCNC(=O)c1ccccc1` gave a Ki of more than 8 mM.

The term Ki denotes a measure of affinity in units of concentration, obtained from inhibition or displacement. Low values mean higher affinity, high ones lower affinity.

The values are drawn from BindingDB's records for doi:10.1021/jm00126a018 (Amherst College, 1989).
